Source: patent US20240366639A1, “HETEROCYCLIC GLP-1 AGONISTS” (GASHERBRUM BIO, INC., priority 2021, published 2024)
Structures can show the parent of a compound that is named as a salt. Where two headings read alike, the source gives them in different places.

Target: T1, GLP-1 Receptor (GLP1R) (Homo sapiens, UniProt P43220)
T1 construct: host or cells: HEK293/GLP1R/CRE-LUC
Experiment: GLP-1R agonist cAMP stimulation assay (Method 3)
Type: cell-based
Conditions: HEK293/GLP1R/CRE-LUC cells (HDB), Method 3, 30 min incubation
Method: Method 3: Activation of GLP-1 receptor is known to stimulate cyclic AMP (cAMP) production in cells which indicates primary coupling to the Gαs subunit of the G protein heterotrimeric complex.
To optimize functional activity directed toward Gαs coupling, a HEK293/CRE-Luc cell line developed by HDB stably expressing the GLP-1 Receptor was used, 200× concentration of compound working solutions were prepared (Agilent Technologies Bravo) with 1/2 log serial dilution in 384-well Echo LDV plate (Labcyte, Cat #LP-0200). 50 nL/well 200× concentration of compound working solutions were moved to 384-well white low volume plate (Greiner, Cat #784075) using Labcyte ECHO550. 1×10^5 cells/mL HEK293/GLP1R/CRE-LUC(HD Biosciences) cell suspensions prepared with assay buffer [DPBS containing 0.5 mM IBMX (Sigma, Cat #15879) and 0.1% BSA (GENVIEW, Cat #FA016-100 g)], 10 μL cell suspensions were added to each well of previous generated assay plate which already contains 50 nL compound at 200× concentration using ThermoFisher Multidrop Combi (1000 cells/well). Seal the plate and incubate at 37° C. with 5% CO2 for 30 min.
After incubation the cAMP assay signal was generated using cAMP dynamic 2 Kit (Cisbio). 5 μL cAMP-d2 working solution was added to each well, followed with 5 μL Anti-cAMP antibody-cryptate working solution added to each well using ThermoFisher Multidrop Combi. Incubate at room temperature for 1 hour protected from light. Read the fluorescence at 665 nm and 615 nm with Reader PerkinElmer EnVision.

[1] = read-out: GLP1R cAMP Stimulation DR: EC50 (nM) [Species: Human, Assay Cell Line: HDB]
[2] = read-out: GLP1R cAMP Stimulation DR: pEC50 (M) [Species: Human, Assay Cell Line: HDB] (converted)

T1 sequence (P43220 24-463): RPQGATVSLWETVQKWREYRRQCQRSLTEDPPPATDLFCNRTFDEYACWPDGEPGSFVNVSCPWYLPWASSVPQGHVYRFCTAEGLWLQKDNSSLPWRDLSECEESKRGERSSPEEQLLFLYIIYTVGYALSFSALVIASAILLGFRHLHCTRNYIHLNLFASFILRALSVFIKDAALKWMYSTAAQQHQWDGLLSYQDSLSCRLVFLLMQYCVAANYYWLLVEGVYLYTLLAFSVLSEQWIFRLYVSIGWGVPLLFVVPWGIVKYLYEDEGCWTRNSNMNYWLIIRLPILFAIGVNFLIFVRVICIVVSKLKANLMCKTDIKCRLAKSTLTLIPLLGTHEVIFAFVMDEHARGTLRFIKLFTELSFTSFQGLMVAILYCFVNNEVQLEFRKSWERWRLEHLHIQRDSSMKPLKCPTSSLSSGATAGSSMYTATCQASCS

| Structure (SMILES) | EC50 [1] [nM] | EC50 [2] [nM] |
| --- | --- | --- |
| CCP(=O)(CC)c1ccc(-n2ccn(-c3c4c(nn3-c3cc(C)c(F)c(C)c3)CCN(C(=O)c3cc5cc(C6CCOCC6)ccc5n3[C@@]3(c5noc(=O)[nH]5)C[C@@H]3C)[C@H]4C)c2=O)cc1N(C)C [Compound 117a, 3-((1S,2S)-1-(2-((S)-3-(3-(4-(diethylphosphoryl)-3-(dimethylamino)phenyl)-2-oxo-2,3-dihydro-1H-imidazol-1-yl)-2-(4-fluoro-3,5-dimethylphenyl)-4-methyl-4,5,6,7-tetrahydro-2H-pyrazolo[4,3-c]pyridine-5-carbonyl)-5-(tetrahydro-2H-pyran-4-yl)-1H-indol-1-yl)-2-methylcyclopropyl)-1,2,4-oxadiazol-5(4H)-one HCl salt] | 0.2 to 0.5 | 0.1 to 1 |
| CCP(=O)(CC)c1ccc(-n2ccn(-c3c4c(nn3-c3cc(C)c(F)c(C)c3)CCN(C(=O)c3cc5cc(C6CCOCC6)ccc5n3[C@@]3(c5noc(=O)[nH]5)C[C@@H]3C)[C@H]4C)c2=O)cc1OC [Compound 118a, 3-((1S,2S)-1-(2-((S)-3-(3-(4-(diethylphosphoryl)-3-methoxyphenyl)-2-oxo-2,3-dihydro-1H-imidazol-1-yl)-2-(4-fluoro-3,5-dimethylphenyl)-4-methyl-4,5,6,7-tetrahydro-2H-pyrazolo[4,3-c]pyridine-5-carbonyl)-5-(tetrahydro-2H-pyran-4-yl)-1H-indol-1-yl)-2-methylcyclopropyl)-1,2,4-oxadiazol-5(4H)-one] | < 0.1 | ≤ 0.1 |
| CCP(=O)(CC)c1ccc(-n2ccn(-c3c4c(nn3-c3cc(C)c(F)c(C)c3)CCN(C(=O)c3cc5cc(C6CCOCC6)ccc5n3[C@@]3(c5noc(=O)[nH]5)C[C@@H]3C)[C@H]4C)c2=O)cc1NC(C)C [Compound 119a, 3-((1S,2S)-1-(2-((S)-3-(3-(4-(diethylphosphoryl)-3-(isopropylamino)phenyl)-2-oxo-2,3-dihydro-1H-imidazol-1-yl)-2-(4-fluoro-3,5-dimethylphenyl)-4-methyl-4,5,6,7-tetrahydro-2H-pyrazolo[4,3-c]pyridine-5-carbonyl)-5-(tetrahydro-2H-pyran-4-yl)-1H-indol-1-yl)-2-methylcyclopropyl)-1,2,4-oxadiazol-5(4H)-one] | 0.2 to 0.5 | 0.1 to 1 |
| CCNc1cc(-n2ccn(-c3c4c(nn3-c3cc(C)c(F)c(C)c3)CCN(C(=O)c3cc5cc(C6CCOCC6)ccc5n3[C@@]3(c5noc(=O)[nH]5)C[C@@H]3C)[C@H]4C)c2=O)ccc1P(=O)(CC)CC [Compound 120a, 3-((1S,2S)-1-(2-((S)-3-(3-(4-(diethylphosphoryl)-3-(ethylamino)phenyl)-2-oxo-2,3-dihydro-1H-imidazol-1-yl)-2-(4-fluoro-3,5-dimethylphenyl)-4-methyl-4,5,6,7-tetrahydro-2H-pyrazolo[4,3-c]pyridine-5-carbonyl)-5-(tetrahydro-2H-pyran-4-yl)-1H-indol-1-yl)-2-methylcyclopropyl)-1,2,4-oxadiazol-5(4H)-one] | < 0.1 | ≤ 0.1 |

The remaining lines, values ahead:

| EC50 [1] [nM] | EC50 [2] [nM] | Structure (SMILES) |
| --- | --- | --- |
| 0.2 to 0.5 | 0.1 to 1 | CCP(=O)(CC)c1ccc(-n2ccn(-c3c4c(nn3-c3cc(C)c(F)c(C)c3)CCN(C(=O)c3cc5cc(C6CCOCC6)ccc5n3[C@@]3(c5noc(=O)[nH]5)C[C@@H]3C)[C@H]4C)c2=O)cc1NS(C)(=O)=O [Compound 116a] |
| < 0.1 | ≤ 0.1 | CCP(=O)(CC)c1ccc(-n2ccn(-c3c4c(nn3-c3cc(C)c(F)c(C)c3)CCN(C(=O)c3cc5cc(C6CCOCC6)ccc5n3[C@@]3(c5noc(=O)[nH]5)C[C@@H]3C)[C@H]4C)c2=O)cc1NC [Compound 121a, 3-((1S,2S)-1-(2-((S)-3-(3-(4-(diethylphosphoryl)-3-(methylamino)phenyl)-2-oxo-2,3-dihydro-1H-imidazol-1-yl)-2-(4-fluoro-3,5-dimethylphenyl)-4-methyl-4,5,6,7-tetrahydro-2H-pyrazolo[4,3-c]pyridine-5-carbonyl)-5-(tetrahydro-2H-pyran-4-yl)-1H-indol-1-yl)-2-methylcyclopropyl)-1,2,4-oxadiazol-5(4H)-one] |
